{
  "source": "patent US20150216806A1",
  "about": "“LAXATIVE COMPOSITIONS AND METHODS FOR TREATING CONSTIPATION AND RELATED GASTROINTESTINAL DISEASES AND CONDITIONS” (SALIX PHARMACEUTICALS, INC., priority 2012, published 2015)",
  "test_system": "patient with chronic constipation",
  "assay": "Example 7: case report, bisoxatin added to colchicine in chronic constipation",
  "assay_type": "in vivo, human",
  "settings": "1 mg in the morning and 1.5 in the evening; still missing a day here and there",
  "method": "They were given added bisoxatin of 120 mg twice daily. […] They were going too well however and the bisoxatin had to be cut back 120 mg mane. For a week or so they were able to take the bisoxatin 120 in the morning and every second day 120 at night. They continued with the treatment for 3 or 4 weeks to date.",
  "data": [
    {"smiles": "COc1cc2c(c(OC)c1OC)-c1ccc(OC)c(=O)cc1[C@@H](NC(C)=O)CC2", "note": "[colchicine]", "values": [
      {"measurement": "response of constipation to colchicine alone", "result": "did not respond"}
    ]}
  ]
}
